The numbers were not newly measured in patent US20080269334A1, “Highly Concentrated Pourable Aqueous Solutions Of Potassium Ibuprofen, Their Preparation And Their Use” (ALBEMARLE CORPORATION, priority 2005, published 2008), which cites them from elsewhere.

Regarding `CC(C)Cc1ccc(C(C)C(=O)[O-])cc1.[K+]` (stereo not drawn) [potassium ibuprofen, potassium 2-(4-isobutylphenyl)propionate], the “concentration of dissolved potassium ibuprofen” value (U.S. Pat. No. 5,912,011 Table 1, system with 35.2 wt % ibuprofen, 33.3 wt % PEG 600, 7.3 wt % water) is given as 24.2 wt %. Further, the “maximum concentration of dissolved potassium ibuprofen shown” value (U.S. Pat. No. 6,387,400, polyethylene glycol solvent, less than about 50 mole % of ibuprofen converted to the potassium salt) was “about 24.2 wt %”.
For `CC(C)Cc1ccc(C(C)C(=O)O)cc1` (stereo not drawn) [ibuprofen], the “solubility of ibuprofen in a solvent system” value (402 mg ibuprofen, 100 mg PEG 600, 3.3 wt % glycerin or propylene glycol, 6.4 wt % water, 38.4 mg KOH, U.S. Pat. Nos. 5,071,643 and 5,360,615) is 67%.
